Key:
Cbl-b [1] = target: T1, Cbl-b (Homo sapiens, UniProt Q13191); assay: Cbl-b activity assay (Cbl-b inhibition assay), TR-FRET of Cbl-b interaction with UbcH5B-Ub; type: biochemical; settings: assay buffer with 100 mM NaCl, 60 nM Src kinase; read-out: Cbl-b activity IC50
Description: The ability of candidate compounds to inhibit Cbl-b activity was measured by monitoring the interaction of Cbl-b with UbcH5B-Ub in the presence of the candidate compound.
Fluorescently labeled UbcH5B-Ub was prepared by conjugating ubiquitin (Ub), labeled at its N-terminus with Bodipy-Fluorescein, to UbcH5B, an E2 enzyme, harboring a cysteine to lysine mutation at position 85. […] After incubation in the presence of the candidate compound, the plate was incubated for an additional 1.5 hours in the presence of 60 nM Src kinase with 1 mM ATP and 5 mM MgCl2 (final concentrations). […] The plate was incubated for 1 hour.
Column marked with an asterisk (*) were tested as described above with assay buffer containing 50 mM NaCl instead of 100 mM NaCl and 30 nM Src kinase instead of 60 nM Src kinase. The resulting data for the Cbl-b binding assay was solvent corrected and double referenced prior to analysis. All data were globally fit to a steady-state affinity and kinetic binding model where applicable). Fit parameters were derived from a 1:1 binding model using the Biacore T200 Evaluation Software V2.0 (GE Healthcare) (Table 2).

Cbl-b [2] = target: T1, Cbl-b; assay: Cbl-b inhibition assay (Cbl-b activity assay, FRET, Biological Example 1; 100 mM NaCl, 60 nM Src kinase); type: biochemical; settings: upper bound stated in text lists; read-out: IC50 values in the Cbl-b inhibition assay of Biological Example 1
Description: FIG. 1A and FIG. 1B show a series of diagrams depicting the activity assay utilized to assay inhibition of Cbl-b activity by a Cbl-b inhibitor. FIG. 1A: The activity assay mixture comprises an N-terminal biotinylated Avi-tagged Cbl-b, an E2 enzyme (i.e., UbcH5B) irreversibly conjugated to Bodipy-Fluorescein tagged ubiquitin (i.e., UbcH5B-Ub), a Src kinase, streptavidin-terbium, and assay buffer. Phosphorylation of Cbl-b by the Src kinase allows UbcH5B-Ub to bind to Cbl-b and bring the Bodipy-Fluorescein tagged ubiquitin in proximity to the streptavidin-terbium bound to the N-terminal biotinylated Avi-tagged Cbl-b. […] FIG. 1B: In the presence of a Cbl-b inhibitor, such as one described herein, Cbl-b is unable to bind UbcH5B-Ub. The lack of a FRET signal indicates Cbl-b is inhibited by the Cbl-b inhibitor. Ub indicates ubiquitin; N-Avi indicates biotinylated Avi-tag at the N-terminus of Cbl-b; inhibitor indicates Cbl-b inhibitor.
The lack of a FRET signal indicates Cbl-b is inhibited by the Cbl-b inhibitor. In FIG. 1A and FIG. 1B, Ub indicates ubiquitin; N-Avi indicates biotinylated Avi-tag at the N-terminus of Cbl-b; and inhibitor indicates Cbl-b inhibitor.

T1 sequence (Q13191 36-427): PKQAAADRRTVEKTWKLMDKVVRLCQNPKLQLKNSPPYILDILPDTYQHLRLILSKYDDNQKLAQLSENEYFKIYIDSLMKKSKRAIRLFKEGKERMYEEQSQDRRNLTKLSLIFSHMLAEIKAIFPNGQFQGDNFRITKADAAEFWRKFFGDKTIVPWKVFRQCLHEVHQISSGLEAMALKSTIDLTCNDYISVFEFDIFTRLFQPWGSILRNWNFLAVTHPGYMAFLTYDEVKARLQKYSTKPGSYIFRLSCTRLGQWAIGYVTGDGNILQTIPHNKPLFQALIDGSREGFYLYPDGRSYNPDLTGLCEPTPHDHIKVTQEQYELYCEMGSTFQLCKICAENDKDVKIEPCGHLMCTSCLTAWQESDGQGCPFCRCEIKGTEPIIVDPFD

Row | SMILES | IC50 (Cbl-b [1]) | IC50 (Cbl-b [2])
1 | Cc1nnnn1CC(C)c1cccc(NC(=O)c2cccc(C(F)(F)F)n2)c1 (centres unmarked) [Compound 217, N-[3-[1-methyl-2-(5-methyltetrazol-1-yl)ethyl]phenyl]-6-(trifluoromethyl)pyridine-2-carboxamide] | > 10 µM | ≤ 10 µM
2 | Cc1cnnn1CC(C)c1cccc(NC(=O)c2cccc(C(F)(F)F)n2)c1 (centres unmarked) [Compound 218, N-[3-[1-methyl-2-(5-methyltriazol-1-yl)ethyl]phenyl]-6-(trifluoromethyl)pyridine-2-carboxamide] | 0.301 to 1 µM | ≤ 0.5 µM
3 | CC(Cn1[nH]cnc1=O)c1cccc(NC(=O)c2cccc(C(F)(F)F)n2)c1 (centres unmarked) [Compound 219, N-[3-[1-methyl-2-(3-oxo-1H-1,2,4-triazol-2-yl)ethyl]phenyl]-6-(trifluoromethyl)pyridine-2-carboxamide] | 3 to 10 µM | ≤ 10 µM
4 | C[C@H](Cc1nncn1C)c1cccc(NC(=O)c2cc(C(=O)NC3CCOC3)ccn2)c1 (stereo partly drawn) [Compound 228, N2-(3-((R)-1-(4-methyl-4H-1,2,4-triazol-3-yl)propan-2-yl)phenyl)-N4-(tetrahydrofuran-3-yl)pyridine-2,4-dicarboxamide] | 3 to 10 µM | ≤ 10 µM
5 | C[C@H](Cc1nncn1C)c1cccc(NC(=O)c2cc(C(=O)N3CC[C@@](C)(N)C3)ccn2)c1 [Compound 230, 4-((R)-3-amino-3-methylpyrrolidine-1-carbonyl)-N-(3-((R)-1-(4-methyl-4H-1,2,4-triazol-3-yl)propan-2-yl)phenyl)picolinamide 2,2,2-trifluoroacetate] | 3 to 10 µM | ≤ 10 µM
6 | C[C@H](Cc1nncn1C)c1cccc(NC(=O)c2cc(C(=O)N3CC(CO)C3)ccn2)c1 [Compound 232, 4-[3-(hydroxymethyl)azetidine-1-carbonyl]-N-[3-[(2R)-1-(4-methyl-4H-1,2,4-triazol-3-yl)propan-2-yl]phenyl]pyridine-2-carboxamide] | 1 to 3 µM | ≤ 10 µM
7 | C[C@H](Cc1nncn1C)c1cccc(NC(=O)c2cc(C(=O)N3CCC4(CCO4)C3)ccn2)c1 (stereo partly drawn) [Compound 237, N-[3-[(2R)-1-(4-methyl-4H-1,2,4-triazol-3-yl)propan-2-yl]phenyl]-4-[1-oxa-6-azaspiro[3.4]octane-6-carbonyl]pyridine-2-carboxamide] | 3 to 10 µM | ≤ 10 µM
8 | C[C@H](Cc1ncco1)c1cccc(N2Cc3c(cccc3C(F)(F)F)C2=O)c1 [Compound 261, (R)-2-(3-(1-(oxazol-2-yl)propan-2-yl)phenyl)-4-(trifluoromethyl)isoindolin-1-one] | 3 to 10 µM | ≤ 10 µM
9 | CC(Cc1nccn1C)c1cccc(N2Cc3c(cccc3C(F)(F)F)C2=O)c1 (centres unmarked) [Compound 267, 2-(3-(1-(1-methyl-1H-imidazol-2-yl)propan-2-yl)phenyl)-4-(trifluoromethyl)isoindolin-1-one] | 3 to 10 µM | ≤ 10 µM
10 | CC(Cc1nocc1CO)c1cccc(N2Cc3c(cccc3C(F)(F)F)C2=O)c1 (centres unmarked) [Compound 269, 2-(3-(1-(4-(hydroxymethyl)isoxazol-3-yl)propan-2-yl)phenyl)-4-(trifluoromethyl)isoindolin-1-one] | 1 to 3 µM | ≤ 10 µM
11 | C[C@H](Cc1n[nH]cc1CO)c1cccc(N2Cc3c(cccc3C(F)(F)F)C2=O)c1 [Compound 271b, (R)-2-(3-(1-(4-(hydroxymethyl)-1H-pyrazol-3-yl)propan-2-yl)phenyl)-4-(trifluoromethyl)isoindolin-1-one] | 1 to 3 µM | ≤ 10 µM
12 | CC(Cc1nncn1C)c1cc(F)cc(N2Cc3c(cccc3C(F)(F)F)C2=O)c1 (centres unmarked) [Compound 281] | 0.1 to 0.3 µM | ≤ 0.5 µM
13 | Cn1cnnc1CC(C)(C)c1cccc(NC(=O)c2ccnc(C(F)(F)F)n2)c1 [Compound 285, N-(3-(2-methyl-1-(4-methyl-4H-1,2,4-triazol-3-yl)propan-2-yl)phenyl)-2-(trifluoromethyl)pyrimidine-4-carboxamide] | 0.1 to 0.3 µM | ≤ 0.5 µM
14 | Cc1ccc(C(=O)Nc2cccc([C@H](C)[C@H](O)c3nncn3C)c2)nc1C1CC1 [Compound 288, Trans-6-cyclopropyl-N-(3-(1-hydroxy-1-(4-methyl-4H-1,2,4-triazol-3-yl)propan-2-yl)phenyl)-5-methylpicolinamide] | 3 to 10 µM | ≤ 10 µM
15 | COC(Cc1nncn1C)c1cccc(N2Cc3c(cccc3C(F)(F)F)C2=O)c1 (centres unmarked) [Compound 290, 2-(3-(1-methoxy-2-(4-methyl-4H-1,2,4-triazol-3-yl)ethyl)phenyl)-4-(trifluoromethyl)isoindolin-1-one] | 1 to 3 µM | ≤ 10 µM
16 | CCOC(Cc1nncn1C)c1cccc(N2Cc3c(cccc3C(F)(F)F)C2=O)c1 (centres unmarked) [Compound 291, 2-(3-(1-ethoxy-2-(4-methyl-4H-1,2,4-triazol-3-yl)ethyl)phenyl)-4-(trifluoromethyl)isoindolin-1-one] | 3 to 10 µM | ≤ 10 µM
17 | Cn1cnnc1C(F)(F)[C@@](C)(F)c1cccc(N2Cc3c(cccc3C(F)(F)F)C2=O)c1 [Compound 296b, (S)-2-(3-(1,1,2-trifluoro-1-(4-methyl-4H-1,2,4-triazol-3-yl)propan-2-yl)phenyl)-4-(trifluoromethyl)isoindolin-1-one] | 3 to 10 µM | ≤ 10 µM
18 | Cn1cnnc1CC(C)(O)c1cccc(N2Cc3c(cccc3C(F)(F)F)C2=O)c1 (centres unmarked) [Compound 297, 2-(3-(2-hydroxy-1-(4-methyl-4H-1,2,4-triazol-3-yl)propan-2-yl)phenyl)-4-(trifluoromethyl)isoindolin-1-one] | 3 to 10 µM | ≤ 10 µM
19 | C[C@@H]1CN(Cc2cc(C(=O)Nc3cccc(C4(Cc5nncn5C)COC4)c3)nc(C3CC3)c2)CCO1 [Compound 501, 6-cyclopropyl-N-(3-{3-[(4-methyl-1,2,4-triazol-3-yl)methyl]oxetan-3-yl}phenyl)-4-{[(2R)-2-methylmorpholin-4-yl]methyl}pyridine-2-carboxamide] | < 0.1 µM | ≤ 0.1 µM
20 | Cc1cc(C(=O)Nc2cccc(C3(Cc4[nH]ncc4C)COC3)c2)nc(C2CC2)n1 [Compound 510, 2-cyclopropyl-6-methyl-N-(3-{3-[(4-methyl-1H-pyrazol-3-yl)methyl]oxetan-3-yl}phenyl)pyrimidine-4-carboxamide] | < 0.1 µM | ≤ 0.1 µM
21 | Cc1cc(C(=O)Nc2cccc(C3=C(c4nncn4C)CCC3)c2)nc(C2CC2)n1 [Compound 518, 2-cyclopropyl-6-methyl-N-(3-(2-(4-methyl-4H-1,2,4-triazol-3-yl)cyclopent-1-en-1-yl)phenyl)pyrimidine-4-carboxamide] | 0.1 to 0.3 µM | ≤ 0.3 µM
22 | Cn1cnnc1CC1(c2cccc(N3Cc4c(cc(CN5CCOC(CCF)C5)cc4C(F)(F)F)C3=O)c2)COC1 (centres unmarked) [Compound 521, 6-{[2-(2-fluoroethyl)morpholin-4-yl]methyl}-2-(3-{3-[(4-methyl-1,2,4-triazol-3-yl)methyl]oxetan-3-yl}phenyl)-4-(trifluoromethyl)-3H-isoindol-1-one] | < 0.1 µM | ≤ 0.1 µM
23 | C[C@@H]1CN(Cc2cc3c(c(C(F)(F)F)c2)CN(c2cccc(-c4c(-c5nncn5C)cnn4C)c2)C3=O)CCO1 [Compound 524, (R)-2-(3-(l-methyl-4-(4-methyl-4H-1,2,4-triazol-3-yl)-1H-pyrazol-5-yl)phenyl)-6-((2-methylmorpholino)methyl)-4-(trifluoromethyl)isoindolin-1-one] | < 0.1 µM | ≤ 0.1 µM
24 | C[C@@H]1CN(Cc2cc3c(c(C(F)(F)F)c2)CN(c2cccc(-c4c(-c5nncn5C)cnn4C)c2)C3=O)C[C@H](C)O1 [Compound 525, 6-(((2S,6S)-2,6-dimethylmorpholino)methyl)-2-(3-(l-methyl-4-(4-methyl-4H-1,2,4-triazol-3-yl)-1H-pyrazol-5-yl)phenyl)-4-(trifluoromethyl)isoindolin-1-one] | < 0.1 µM | ≤ 0.1 µM
25 | Cn1cnnc1CC1(c2cccc(N3Cc4c(cc(CC5CNCCC5=O)cc4C(F)(F)F)C3=O)c2)COC1 (centres unmarked) [Compound 530, 2-(3-(3-((4-methyl-4H-1,2,4-triazol-3-yl)methyl)oxetan-3-yl)phenyl)-6-((4-oxopiperidin-3-yl)methyl)-4-(trifluoromethyl)isoindolin-1-one] | < 0.1 µM | ≤ 0.1 µM

Source: patent US20220324835A1 (Nurix Therapeutics, Inc., priority 2018, published 2022)
